From ChEMBL document CHEMBL5729352, “Broad spectrum antiviral compositions and methods” (2022)

Experiment: Assessing Antiviral Activity Against Human Cytomegalovirus (HCMV): To assess their antiviral activity, some compounds were tested against human cytomegalovirus (HCMV) in vitro. Human […] cells were grown to confluency (˜1.0×10^4 cells/well) in 96-well plate format in Dulbecco's Modified Eagle Medium (DMFM) supplemented with 10% fetal bovine serum (FBS) 2 mM L-glutamine, 0.1 mM non-essential amino acids, 10 mM HEPES, and 100 U/ml each of penicillin and streptomycin and infected with an HCMV variant expressing mCherry tagged pUL99 (the product of late viral UL99 gene) at a multiplicity of 0.01 infectious unit (IU) per cell. Assays were performed in triplicate. One hour later, medium of the cells was replaced with fresh medium containing the indicated compounds at 25, 12.5, 6.25, 3.13, 1.56, 0.78, 0.39 μM or the carrier in which the compounds are dissolved (DMSO). Final concentration of DMSO was 0.5% in each treatment. Virus yield in the culture was determined at 7 days post infection by quantification of fluorescent (mCherry positive) cells in each well by fluorescent microscopy. Results were plotted using CDD Vault (CDD Vault was developed by Collaborative Drug Discovery, Inc., 1633 Bayshore Hwy, Suite 342, Burlingame, Calif. 94010) in order to calculate IC50s.
Assay type: cell-based

With `NC(=O)c1cccc(Cc2cnc(N3CCc4cc5c(cc4C3)OCCO5)s2)c1` the IC50 was 8.63 µM.
